Experimental data published in US6022859A, “Inhibitors of β-amyloid toxicity” (Wisconsin Alumni Research Foundation, priority 1997, dated 2000).
Where a SMILES comes first, the peptide text is derived from it. Where no end group is shown, it is not given here. [ ]: non-standard residue; d: D form. Ahx = NCCCCCC(=O)O

Legend:
[1] = Solubility of test peptides (Table 1; PBSA); settings: for Soluble: Table 1
Method: (§4) The solubility and aggregation properties of the test peptides were assessed by visual observation, analytical ultracentrifugation, and/or dynamic light scattering.

Aβ [2] = molecular target: Aβ (Homo sapiens, UniProt P05067); settings: literature; cited from earlier work
Aβ (Homo sapiens, UniProt P05067), sequence (P05067 672-711 limits assumed): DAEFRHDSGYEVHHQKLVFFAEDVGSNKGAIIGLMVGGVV

Aβ [3] = settings: literature, cited from earlier work
[4] = Self-aggregation of test peptides alone (sedimentation equilibrium ultracentrifugation, dynamic light scattering, visual observation); assay type: physicochemical; settings: peptide alone
Method: as §4

[5] = Circular dichroism spectroscopy, secondary structure of peptide alone; assay type: physicochemical; settings: phosphate buffer (0.1 M, pH 7.4)
Method: (§1) β(1-39), 15-25-K6, or a mixture of β(1-39) and 15-25-K6 (1:2 molar ratio) were dissolved in 0.01 M phosphate buffer, pH 7.2. The final concentration was 0.5 mg/ml for each peptide. The solution was passed through a 0.45 μm Millipore (Bedford, Mass.) filter to remove dust and then degassed. Circular dichroism spectra in the far UV (190-240 nm) were obtained using a modified Cary Model 60 spectropolarimeter (On-line Instrument Systems, Bogart, Calif.) and analyzed for secondary structure as described (Shen, C.-L., et al., Biophys. J. 65:2383-2395, 1993).
(§2) Circular dichroism spectra of Aβ(1-39) and 15-25-K6 in phosphate buffer (0.1 M. pH 7.4) were collected and quantitatively analyzed for secondary structure. Aβ(1-39) was 65% β-sheet and 30% random coil (spectra not shown), in line with previous measurements (Shen, C.-L., et al., supra, 1994). The secondary structure of 15-25-K6 was essentially the same (64% Aβ-sheet, 36% random coil, data not shown).

Aβ(1-39) [6] = molecular target: T1, Aβ(1-39) (Homo sapiens, UniProt P05067); assay: Circular dichroism spectroscopy, effect of peptide on Aβ(1-39) spectra; assay type: biochemical; settings: Aβ(1-39):peptide 1:2 molar ratio
T1 construct: A peptide homologous to the first 39 residues of Aβ, Aβ(1-39), was purchased from AnaSpec, Inc; purchased AnaSpec, Inc. (San Jose, Calif.)
T1 sequence (P05067 672-710): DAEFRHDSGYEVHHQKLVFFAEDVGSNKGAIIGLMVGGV
Method: as §1, §2

Aβ(1-39) [7] = molecular target: T1, Aβ(1-39); assay: Dynamic light scattering, Aβ(1-39) aggregation kinetics; assay type: biochemical; settings: Aβ 0.5 mg/ml, peptide:Aβ molar ratio 2:1
Method: Lyophilized Aβ(1-39) was solubilized in 0.1% TFA at 10 mg/ml, then diluted twenty-fold into PBSA or into PBSA containing the test peptide. PBSA was double-filtered through a 0.22 μm filter prior to use. pH was adjusted to 7.4 with 0.5 N NaOH, then the sample was immediately filtered through a 0.45 μm filter directly into a clean light scattering cuvette. In all cases Aβ(1-39) concentration was 0.5 mg/ml and the molar ratio of test peptide to Aβ was 2:1 unless otherwise indicated. Autocorrelation functions at 90° scattering angle were collected as described previously (Shen, et al., 1994, supra). Data were fit using the method of cumulants to derive and apparent hydrodynamic radius.
The effect of the test peptides on aggregation kinetics of Aβ(1-39) was assessed by dynamic light scattering (FIG. 1). FIG. 1 graphs the effect of recognition and hybrid peptides on Aβ aggregation kinetics. Final Aβ concentration was 0.5 mg/ml, Aβ:peptide molar ratio was 1:2 except where indicated. The hydrodynamic radius (measured at a 90° scattering angle) was measured as a function of time.

Aβ(1-39) [8] = molecular target: T1, Aβ(1-39); assay: Static light scattering, Aβ(1-39) aggregate molecular weight and morphology (Kratky plot); assay type: biochemical; settings: peptide:Aβ 2:1 (16-20-K6 1:2)
Method: Solutions of Aβ(1-39) alone or with test peptide at a 2:1 peptide:Aβ molar ratio were prepared as described above. Solutions were incubated at room temperature for 24 hours, after which scattered intensity data as a function of angle were collected and analyzed as described elsewhere (Shen, C.-L. and Murphy, Biophys. J., 1995, supra).
The effect of the test peptide on aggregate size and morphology was probed with static light scattering. […] Thus, the average molecular weight of Aβ(1-39) aggregates was not dramatically affected by any of the peptides tested.
A convenient tool for abstracting particle shape information from angular dependence data is the so-called Kratky plot. FIGS. 2A and B are Kratky plots of Aβ-peptide solutions. Aβ(1-39) was co-incubated with recognition (A) or hybrid (B) peptides for 24 hours, after which SLS data were collected, analyzed, and plotted as Kratky plots. In all cases, Aβ(1-39) concentration was 0.5 mg/ml and the peptide:Aβ molar ratio was 2:1, except for 16-20-K6 for which the molar ratio was lowered to 1:2. In FIG. 2, q is the scattering vector, which is related to the scattering angle, R is the Rayleigh ratio, a function of the scattering intensity, c is the concentration, and K is an instrument constant. Referring to FIG. 2A, the rising curves with an intermediate plateau are characteristic of semiflexible linear chains. […]

Aβ(1-39) [9] = molecular target: T1, Aβ(1-39); assay: ThT fluorescence spectroscopy with Aβ(1-39); assay type: biochemical; settings: one week incubation at room temperature
Method: A few samples used for cellular toxicity assays were tested for ThT fluorescence after one week aging and prior to dilution into cell culture medium. ThT (Sigma, St. Louis, Mo.) was dissolved at 100 μM in PBSA. Forty μl peptide solution and 40 μl ThT stock solution were mixed with 920 μl PBSA and briefly vortexed. Fluorescence emission spectra were taken using a Model M-3 Alphascan (Photon Technology International, South Brunswick, N.J.) spectrofluorimeter, with excitation at 450 nm. An increase in fluorescence with a maximum at 482 nm is indicative of amyloid (LeVine, H. Protein Sci. 2:404-410, 1993). Fluorescence intensity for diluted ThT in the absence of peptide was determined and subtracted from sample intensities. ThT fluorescence intensity was measured for Aβ-amyloid(1-39) alone or mixed with 18-25 or 15-25-K6 after one week incubation at room temperature. Samples were diluted 25-fold just prior to measurement. […] Because 16-25 was not soluble in PBS, the assay could not be repeated in a like manner for that peptide; however, a parallel experiment was conducted by dissolution of 16-25 or 18-25 into 35% ACN/TFA followed by mixing with Aβ(1-39) and dilution into PBS.

Aβ(25-35) = molecular target: T2, Aβ(25-35) (Homo sapiens, UniProt P05067); assay: ThT fluorescence spectroscopy with Aβ(25-35); assay type: biochemical; settings: mixed with Aβ(25-35)
T2 construct: A peptide homologous to the 25-35 residues of Aβ, Aβ(25-35), was purchased from Sigma; purchased Sigma (St. Louis, Mo.)

Aβ(1-39) [10] = molecular target: T1, Aβ(1-39); assay: Electron microscopy of Aβ(1-39) fibrils; assay type: biochemical; settings: aged approximately one week
Method: Solutions of Aβ(1-39) alone (0.5 mg/ml) or with 1 mg/ml 15-25-K6 were prepared as described above and aged at room temperature for approximately one week. A drop of the peptide solution was placed on a Pioloform coated 300 mesh electron microscope copper grid. After blotting, a drop of 1% ammonium molybdate was placed on the grid while being held with fine forceps. The grid was blotted on filter paper and allowed to dry before observing the specimen in a JEOL (Peabody, Mass.) 100 CX Electron Microscope at 60 kV. To further examine the aggregates, electron micrographs were taken. FIG. 3A and B are electron micrographs of (A) Aβ(1-39) alone and (B) Aβ(1-39) with 15-25-K6. Magnification is 72,500x.

PC-12 cells [11] = assay: Cellular toxicity (MTT assay): protection from Aβ(1-39) toxicity; assay type: cell-based; settings: both molar ratios tested (2:1 and 1:1)
Method: (§3) Solutions of recognition or hybrid peptides were prepared by direct dissolution of lyophilized peptide into sterile PBS (with antibiotics). Aβ(1-39) was dissolved in 0.1% TFA at 10 mg/ml, then diluted twenty-fold into sterile PBS (with antibiotics) or PBS containing the hybrid or recognition peptides. Solutions were prepared at 2:1 or 1:1 peptide:Aβ molar ratio. The samples were incubated at room temperature for 7 days, then diluted five-fold with medium and incubated for one day. As a control, PBS was diluted 5:1 with medium and added to some wells.
Freshly-prepared solutions of Aβ(1-39) were not toxic to the cells, consistent with other reports in the literature (Shearman, et al., supra). None of the test peptides alone were toxic. […] FIG. 4 graphs the effect of recognition and hybrid peptides on Aβ toxicity. Aβ(0.5 mg/ml) was incubated with the recognition peptide at a 1:2 Aβ:peptide molar ratio (A), or with the hybrid peptides at a 1:1 or 1:2 Aβ:peptide molar ratio (B), for one week, following which the solution was diluted five-fold and added to monolayer cultures of PC-12 cells. Cell viability was assessed with the MTT assay; results are reported relative to untreated wells. […] The ability of each peptide to protect cells from Aβ toxicity was assessed by a upper-tailed t-test; *, p<0.01; **, p<0.001.

PC-12 cells [12] = assay: Cellular toxicity (MTT assay): effect on Aβ(25-35) toxicity; assay type: cell-based; settings: co-incubation with Aβ(25-35)
Method: as §3
15-25-K6 shares essentially no homology with Aβ(25-35), which also forms fibrillar aggregates and is toxic to cells. Aβ(25-35) decreased MTT reduction to 45% of controls; co-incubation of 15-25-K6 with Aβ(25-35) had no effect on the toxicity of Aβ(25-35).

Aβ toxicity = settings: literature; cited from earlier work

## CC(C)C[C@H](NC(=O)[C@@H](N)CCCCN)C(=O)N[C@H](C(=O)N[C@@H](Cc1ccccc1)C(=O)O)C(C)C [16-19, KLVF] (H-KLVF-OH)
[1]
  Soluble: yes

## VFFAEDVG [18-25, VFFAEDVG]
[1]
  Soluble: yes

## KLVFFKKKKKK [16-20-K6, KLVFFKKKKKK]
[1]
  solubility in PBSA: readily soluble
  Soluble: yes

## FAEDVG [20-25, FAEDVG]
[1]
  Soluble: yes

## FFAEDVG [19-25, FFAEDVG]
[1]
  Soluble: yes

## KKLVFFA
Aβ [2]
  interaction with Aβ: interacts with the homologous sequence in Aβ

## CCCCCCCCCCCCCCCC[N+]1(C)CCCCC1.[Br-] [hexadecyl-N-methylpiperidinium bromide]
Aβ [3]
  effect on Aβ aggregation / fibril formation: inhibits Aβ fibril formation

## FAEDVGKKKKKK [20-25-K6, FAEDVGKKKKKK]
[1]
  solubility in PBSA: readily soluble
  Soluble: yes

## QKLVTTAE [literature octapeptide with substitutions for the two Phe residues at positions 19 and 20]
Aβ [3]; 10-fold molar excess, electron microscopy
  effect on Aβ fibril formation: inhibited fibril formation

## GQKLVFFAEDVGGaKKKKKK (GQKLVFFAEDVGG[Ahx]KKKKKK) [15-25-K6]
[4]
  aggregation state by sedimentation equilibrium ultracentrifugation: monomeric
[5]
  random coil content: 36%
  β-sheet content: 64%
Aβ(1-39) [6]
  effect on circular dichroism spectra of Aβ(1-39): did not significantly alter
Aβ(1-39) [7]
  effect on Aβ aggregate size / growth rate (hydrodynamic radius vs time): dramatic increase
Aβ(1-39) [8]; 24 hours after mixing
  increase in molecular weight of Aβ aggregates: 2-2.5 fold
Aβ(1-39) [8]; 24 hours co-incubation
  effect on Aβ(1-39) aggregate shape / morphology (Kratky plot): greatest effect on the particle shape
Aβ(1-39) [9]
  effect on ThT fluorescence intensity of Aβ(1-39): reduced the ThT fluorescence intensity of Aβ(1-39) somewhat
Aβ(25-35)
  effect on ThT fluorescence of Aβ(25-35): neither a positive nor a negative effect
Aβ(1-39) [10]
  effect on Aβ(1-39) fibril morphology (electron micrographs): did not prevent fibril formation but did appear to reduce the average length of fibrils, and increase the extent of fibril entanglement
PC-12 cells [11]
  protection against Aβ(1-39) toxicity: intermediate in protective effect
PC-12 cells [12]
  effect on toxicity of Aβ(25-35): no effect

## OC[C@H]1O[C@@H]2O[C@H]3[C@H](O)[C@@H](O)[C@@H](O[C@H]4[C@H](O)[C@@H](O)[C@@H](O[C@H]5[C@H](O)[C@@H](O)[C@@H](O[C@H]6[C@H](O)[C@@H](O)[C@@H](O[C@H]7[C@H](O)[C@@H](O)[C@@H](O[C@H]8[C@H](O)[C@@H](O)[C@@H](O[C@H]1[C@H](O)[C@H]2O)O[C@@H]8CO)O[C@@H]7CO)O[C@@H]6CO)O[C@@H]5CO)O[C@@H]4CO)O[C@@H]3CO [β-Cyclodextrin]
Aβ toxicity
  effect on Aβ toxicity: partially reduces Aβ toxicity

## Nc1c(/N=N/c2ccc(-c3ccc(/N=N/c4cc(S(=O)(=O)O)c5ccccc5c4N)cc3)cc2)cc(S(=O)(=O)O)c2ccccc12 [Congo red]
Aβ [3]
  effect on Aβ aggregation / fibril formation: disrupt Aβ aggregation
Aβ toxicity
  effect on Aβ toxicity: reduce Aβ toxicity

## VLFKF [16-20S, VLFKF]
[1]
  Soluble: yes

## CC(C)C[C@H](NC(=O)[C@@H](N)CCCCN)C(=O)N[C@H](C(=O)N[C@@H](Cc1ccccc1)C(=O)N[C@@H](Cc1ccccc1)C(=O)O)C(C)C [16-20, KLVFF]
[1]
  Soluble: yes
